Assay results taken from PubChem BioAssay AID1259407 (Chemical Carcinogenesis Research Information System (CCRIS), 2018).
Activity calls are given as the source filed them. No rule for the calls is given here.

System: CCRIS mutagenicity, Ames/micronucleus/aberration tests
Test: CCRIS mutagenicity studies

Structure (SMILES): CCCCCCCCCCCCCC(=O)O
- mutagenic call (Test System: AMES SALMONELLA TYPHIMURIUM, Strain/Indicator: TA97, Metabolic Activation: HAMSTER, LIVER, S-9, AROCLOR 1254 (10 OR 30%), Method: PREINCUBATION): inactive; negative
- mutagenic call (Test System: AMES SALMONELLA TYPHIMURIUM, Strain/Indicator: TA97, Metabolic Activation: NONE, Method: PREINCUBATION): inactive; negative
- mutagenic call (Test System: AMES SALMONELLA TYPHIMURIUM, Strain/Indicator: TA97, Metabolic Activation: RAT, LIVER, S-9, AROCLOR 1254 (10%), Method: PREINCUBATION): inactive; negative
- mutagenic call (Test System: AMES SALMONELLA TYPHIMURIUM, Strain/Indicator: TA97, Metabolic Activation: RAT, LIVER, S-9, AROCLOR 1254 (30%), Method: PREINCUBATION): inactive; negative
- mutagenic call (Test System: AMES SALMONELLA TYPHIMURIUM, Strain/Indicator: TA98, Metabolic Activation: HAMSTER, LIVER, S-9, AROCLOR 1254 (10 OR 30%), Method: PREINCUBATION): inactive; negative
- mutagenic call (Test System: AMES SALMONELLA TYPHIMURIUM, Strain/Indicator: TA98, Metabolic Activation: NONE, Method: PREINCUBATION): inactive; negative
- mutagenic call (Test System: AMES SALMONELLA TYPHIMURIUM, Strain/Indicator: TA98, Metabolic Activation: RAT LIVER S-9, PHENOBARBITAL AND BETA-NAPHTHOFLAVONE, Method: PREINCUBATION): inactive; negative
- mutagenic call (Test System: AMES SALMONELLA TYPHIMURIUM, Strain/Indicator: TA98, Metabolic Activation: RAT, LIVER, S-9, AROCLOR 1254 (10 OR 30%), Method: PREINCUBATION): inactive; negative
- mutagenic call (Test System: AMES SALMONELLA TYPHIMURIUM, Strain/Indicator: TA100, Metabolic Activation: HAMSTER, LIVER, S-9, AROCLOR 1254 (10%), Method: PREINCUBATION): inactive; negative
- mutagenic call (Test System: AMES SALMONELLA TYPHIMURIUM, Strain/Indicator: TA100, Metabolic Activation: HAMSTER, LIVER, S-9, AROCLOR 1254 (30%), Method: PREINCUBATION): inactive; negative
- mutagenic call (Test System: AMES SALMONELLA TYPHIMURIUM, Strain/Indicator: TA100, Metabolic Activation: NONE, Method: PREINCUBATION): inactive; negative
- mutagenic call (Test System: AMES SALMONELLA TYPHIMURIUM, Strain/Indicator: TA100, Metabolic Activation: RAT LIVER S-9, PHENOBARBITAL AND BETA-NAPHTHOFLAVONE, Method: PREINCUBATION): inactive; negative
- mutagenic call (Test System: AMES SALMONELLA TYPHIMURIUM, Strain/Indicator: TA100, Metabolic Activation: RAT, LIVER, S-9, AROCLOR 1254 (10%), Method: PREINCUBATION): inactive; negative
- mutagenic call (Test System: AMES SALMONELLA TYPHIMURIUM, Strain/Indicator: TA100, Metabolic Activation: RAT, LIVER, S-9, AROCLOR 1254 (30%), Method: PREINCUBATION): inactive; negative
- mutagenic call (Test System: AMES SALMONELLA TYPHIMURIUM, Strain/Indicator: TA1535, Metabolic Activation: HAMSTER, LIVER, S-9, AROCLOR 1254 (10 OR 30%), Method: PREINCUBATION): inactive; negative
- mutagenic call (Test System: AMES SALMONELLA TYPHIMURIUM, Strain/Indicator: TA1535, Metabolic Activation: NONE, Method: PREINCUBATION): inactive; negative
- mutagenic call (Test System: AMES SALMONELLA TYPHIMURIUM, Strain/Indicator: TA1535, Metabolic Activation: RAT, LIVER, S-9, AROCLOR 1254 (10 OR 30%), Method: PREINCUBATION): inactive; negative
- mutagenic call (Test System: AMES SALMONELLA TYPHIMURIUM, Strain/Indicator: TA1537, Metabolic Activation: HAMSTER, LIVER, S-9, AROCLOR 1254 (10 OR 30%), Method: PREINCUBATION): inactive; negative
- mutagenic call (Test System: AMES SALMONELLA TYPHIMURIUM, Strain/Indicator: TA1537, Metabolic Activation: NONE, Method: PREINCUBATION): inactive; negative
- mutagenic call (Test System: AMES SALMONELLA TYPHIMURIUM, Strain/Indicator: TA1537, Metabolic Activation: RAT LIVER S-9, PHENOBARBITAL AND BETA-NAPHTHOFLAVONE, Method: PREINCUBATION): inactive; negative
- mutagenic call (Test System: AMES SALMONELLA TYPHIMURIUM, Strain/Indicator: TA1537, Metabolic Activation: RAT, LIVER, S-9, AROCLOR 1254 (10 OR 30%), Method: PREINCUBATION): inactive; negative
- mutagenic call (Test System: E.COLI, Strain/Indicator: WP2UVRA/PKM101, Metabolic Activation: NONE, Method: PREINCUBATION): inactive; negative
- mutagenic call (Test System: E.COLI, Strain/Indicator: WP2UVRA/PKM101, Metabolic Activation: RAT LIVER S-9, PHENOBARBITAL AND BETA-NAPHTHOFLAVONE, Method: PREINCUBATION): inactive; negative

Structure (SMILES): NNc1nc(-c2ccc(N)cc2)cs1
- mutagenic call (Test System: AMES SALMONELLA TYPHIMURIUM, Strain/Indicator: TA98, Metabolic Activation: RAT, LIVER, S-9, KC500 OR PHENOBARBITAL, Method: LIQUID SUSPENSION): active; positive
- mutagenic call (Test System: AMES SALMONELLA TYPHIMURIUM, Strain/Indicator: TA100, Metabolic Activation: RAT, LIVER, S-9, KC500 OR PHENOBARBITAL, Method: LIQUID SUSPENSION): active; positive

Structure (SMILES): O.O=C([O-])c1ccccn1.O=C([O-])c1ccccn1.O=C([O-])c1ccccn1.[Cr+3]
- mutagenic call (End Point: In vivo micronucleus, Test System: Peripheral blood normochromatic erythrocytes, Species: Mouse, Strain/Sex: B6C3F1/Female, Route: Oral): inactive; negative
- mutagenic call (End Point: In vivo micronucleus, Test System: Peripheral blood normochromatic erythrocytes, Species: Mouse, Strain/Sex: B6C3F1/Male, Route: Oral): inactive; negative
- mutagenic call (Test System: Ames Salmonella typhimurium, Strain/Indicator: TA98, Metabolic Activation: None, Method: Preincubation): inactive; negative
- mutagenic call (Test System: Ames Salmonella typhimurium, Strain/Indicator: TA98, Metabolic Activation: Rat, Liver, S-9, Aroclor 1254 (10%), Method: Preincubation): inactive; negative
- mutagenic call (Test System: Ames Salmonella typhimurium, Strain/Indicator: TA98, Metabolic Activation: Rat, Liver, S-9, Phenobarbital and 5,6-benzoflavone, Method: Preincubation): inactive; negative
- mutagenic call (Test System: Ames Salmonella typhimurium, Strain/Indicator: TA100, Metabolic Activation: None, Method: Preincubation): inactive; negative
- mutagenic call (Test System: Ames Salmonella typhimurium, Strain/Indicator: TA100, Metabolic Activation: Rat, Liver, S-9, Aroclor 1254 (10%), Method: Preincubation): inactive; negative
- mutagenic call (Test System: Ames Salmonella typhimurium, Strain/Indicator: TA100, Metabolic Activation: Rat, Liver, S-9, Phenobarbital and 5,6-benzoflavone, Method: Preincubation): inactive; negative
- mutagenic call (Test System: Ames Salmonella typhimurium, Strain/Indicator: TA1535, Metabolic Activation: None, Method: Preincubation): inactive; negative
- mutagenic call (Test System: Ames Salmonella typhimurium, Strain/Indicator: TA1535, Metabolic Activation: Rat, Liver, S-9, Phenobarbital and 5,6-benzoflavone, Method: Preincubation): inactive; negative
- mutagenic call (Test System: Ames Salmonella typhimurium, Strain/Indicator: TA1537, Metabolic Activation: None, Method: Preincubation): inactive; negative
- mutagenic call (Test System: Ames Salmonella typhimurium, Strain/Indicator: TA1537, Metabolic Activation: Rat, Liver, S-9, Phenobarbital and 5,6-benzoflavone, Method: Preincubation): inactive; negative
- mutagenic call (Test System: E. coli, Strain/Indicator: WP2 uvrA/pKM101, Metabolic Activation: None, Method: Preincubation): inactive; negative
- mutagenic call (Test System: E. coli, Strain/Indicator: WP2uvrA/pKM101, Metabolic Activation: None, Method: Preincubation): inactive; negative
- mutagenic call (Test System: E. coli, Strain/Indicator: WP2 uvrA/pKM101, Metabolic Activation: Rat, Liver, S-9, Aroclor 1254 (10%), Method: Preincubation): inactive; negative
- mutagenic call (Test System: E. coli, Strain/Indicator: WP2uvrA/pKM101, Metabolic Activation: Rat, Liver, S-9, Phenobarbital and 5,6-benzoflavone, Method: Preincubation): inactive; negative
